Measured values published in patent US20020137781A1, “Preparation and use of enantiomer-pure 2,4-disubstituted oxazolines” (priority 1999, published 2002).
Several values for one entry are separate records, joined by “and”; a condition that tells them apart may be missing. Identical values can stand only once.

Test system: Dermanyssus gallinae
Test: Comparative in vitro effect on Dermanyssus gallinae
Conditions: for Type of activity: at the EC100 of the same table line; for EC100 (minimum dosage to reach 100% mortality): fed adult female mites, evaluated after 5 days
Description: 15 fed adult female mites of the genus Dermanyssus gallinae fixed on a plastic adhesive film are brought into contact with 50 μl of an aqueous suspension or emulsion of the test substance. The test is carried out with concentrations of 32, 10, 3.2, 1.0, 0.32 to 0.1 ppm. After drying, the film is stuck onto a glass disc. This creates a kind of air bubble around each mite, the lower surface of which is formed by the glass disc and the upper surface by a bulging of the adhesive film. This bubble contains sufficient air for the mite to avoid suffocating. After 5 days, the effect of the test substance is evaluated with the aid of a stereo-microscope by assessing the effect on mortality, egg deposition, egg quality, hatching rate, pupation rate, and development of protonymphs according to the following 4 criteria:
1. if 9 to 10 mites are dead, this indicates a lethal effect (M);
3. if 2 or more mites survive and produce eggs, but no larvae hatch from these eggs and no protonymphs develop, this indicates a development-inhibiting effect (H);
4. if 2 or more mites survive and lay the usual number of normal eggs, from which larvae hatch and develop into protonymphs, this indicates no activity.

Structure (SMILES) | concentration that completely inhibits the development of protonymphs (after 5 days) | type of effect (points 1-4) (after 5 days) | Type of activity | EC100 (minimum dosage to reach 100% mortality) | concentration to reach an activity of type 1 (activity of type 1) | concentration to reach a considerable efficacy (only activity of type 3) (activity of type 3) | Type of activity (listed as Enantiomer B) | type of effect (points 1-4) at concentrations up to 10 ppm (concentrations up to 10 ppm) | EC100 (minimum dosage to reach 100% mortality) (listed as Enantiomer B)
Fc1cccc(F)c1C1=NC(c2ccc(-c3ccc(C(F)(F)F)cc3)cc2)CO1 (racemic) [Racemate, 2-(2,6-difluorophenyl)-4-(4′-trifluoromethylbiphenyl-4-yl)-4,5-dihydrooxazole, reference compound] | ≥ 0.02 ppm | 1 | 1 | 0.2 ppm | – | – | – | – | –
Fc1cccc(F)c1C1=NC(c2ccc(-c3ccc(C(F)(F)F)cc3)cc2)CO1 (single isomer, unassigned) [1.2, 2-(2,6-difluoro-phenyl)-4-(4′-trifluoromethylbiphenyl-4-yl)-4,5-dihydro-oxazole] | – | – | – | – | at least 32 ppm | at least 20 ppm | 3) and 1 | 4 | 20.0 ppm and 32.0 ppm
